SMILES strings stand for the structures.

One experiment addresses memapsin 2 (Homo sapiens, UniProt P56817). Put plainly: Inhibition of memapsin 2 beta-secretase activity (fluorogenic substrate FS-2). It is filed as biochemical. As to conditions: memapsin 2, pH 4, 37° C., 20 minutes pre-incubation; read-out: M2Ki. In a few lines:
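Kinetic fluorogenic assay: hydrolysis of the MCA/DNP-labelled APP Swedish-variant peptide FS-2 monitored as fluorescence rise at 37° C, pH 4, after 20 min enzyme–compound preincubation. Relative rates fitted with a tight-binding inhibitor model.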

Experiment [1] relates to Aβ production in Chinese hamster ovary cells that over-express human APP695 with the London and Swedish mutations. Kind of experiment: Cellular Aβ IC50 determination (Aβ40 sandwich ELISA). As to conditions: Cricetulus griseus; cellular Aβ production; read-out: IC50. It is filed as cell-based. In a few lines:
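Aβ40 in media quantified by sandwich ELISA, normalized to control incubations and fitted with a 4-parameter IC50 model. Compounds dosed to a final concentration near 4 μM (0.4% DMSO) on CHO cells expressing human APP695 (London and Swedish mutants) seeded at 10% confluency.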
A general note: ELISA stands for enzyme-linked immunosorbent assay.

memapsin 2, sequence (P56817 46-501): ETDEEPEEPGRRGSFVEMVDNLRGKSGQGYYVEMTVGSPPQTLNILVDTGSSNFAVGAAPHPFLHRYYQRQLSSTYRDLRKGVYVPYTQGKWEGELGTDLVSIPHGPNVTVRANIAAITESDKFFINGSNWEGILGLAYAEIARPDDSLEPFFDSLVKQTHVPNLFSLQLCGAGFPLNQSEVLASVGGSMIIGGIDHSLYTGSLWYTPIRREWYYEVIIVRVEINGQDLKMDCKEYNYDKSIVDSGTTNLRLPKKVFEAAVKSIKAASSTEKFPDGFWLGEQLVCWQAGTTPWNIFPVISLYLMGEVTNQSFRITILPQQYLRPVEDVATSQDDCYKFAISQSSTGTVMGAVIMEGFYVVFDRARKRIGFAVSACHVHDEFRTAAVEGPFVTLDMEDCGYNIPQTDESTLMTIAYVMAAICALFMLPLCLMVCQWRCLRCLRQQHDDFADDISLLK

What is called IC50 is the concentration needed to halve the response being measured. As to `COc1cccc(CNC[C@@H](O)[C@H](Cc2ccccc2)NC(=O)c2cccc(C(=O)NCc3nccc(C)n3)c2)c1` [Compound 102, N1-((2S,3R)-3-hydroxy-4-(3-methoxybenzylamino)-1-phenylbutan-2-yl)-N3-((4-methylpyrimidin-2-yl)methyl)isophthalamide], at memapsin 2, the Ki was > 501 nM. Besides, in experiment [1], the IC50 was > 5000 nM.

On to `COc1cccc(CNC[C@@H](O)[C@H](Cc2ccccc2)NC(=O)c2cc(C(N)=O)cc(C(=O)N(C)Cc3nc(C)cs3)c2)c1` [Compound 103, N1-((2S,3R)-3-hydroxy-4-(3-methoxybenzylamino)-1-phenylbutan-2-yl)-N3-methyl-N3-((4-methylthiazol-2-yl)methyl)benzene-1,3,5-tricarboxamide], for which the Ki at memapsin 2 is < 300 nM. Further, the IC50 in experiment [1] was < 1000 nM.

As for `Cc1csc(CN(C)C(=O)c2cccc(C(=O)N[C@@H](Cc3ccccc3)[C@H](O)CNCc3cccc(Cl)c3)c2)n1` [Compound 104, N1-((2S,3R)-4-(3-chlorobenzylamino)-3-hydroxy-1-phenylbutan-2-yl)-N3-methyl-N3-((4-methylthiazol-2-yl)methyl)isophthalamide], the Ki at memapsin 2 was < 300 nM. For the same compound, the half-inhibitory concentration (IC50) in experiment [1] was < 1000 nM.

Turning to `Cc1csc(CN(C)C(=O)c2cccc(C(=O)N[C@@H](Cc3ccccc3)[C@H](O)CNCc3cc(C(C)C)nc(C(C)C)c3)c2)n1` [Compound 106, N1-((2S,3R)-4-((2,6-diisopropylpyridin-4-yl)methylamino)-3-hydroxy-1-phenylbutan-2-yl)-N3-methyl-N3-((4-methylthiazol-2-yl)methyl)isophthalamide], the Ki at memapsin 2 was < 300 nM. The IC50 in experiment [1] was < 1000 nM.

Take `C[C@@H](NC(=O)c1cc(C(=O)N[C@@H](Cc2ccccc2)[C@H](O)CNCc2cccc(CO)c2)cc(N(C)S(C)(=O)=O)c1)c1ccccc1` [Compound 107, N1-((2S,3R)-3-hydroxy-4-(3-(hydroxymethyl)benzylamino)-1-phenylbutan-2-yl)-5-(N-methylmethylsulfonamido)-N3-((R)-1-phenylethyl)isophthalamide]: on memapsin 2, the Ki is < 300 nM. In addition, the half-inhibitory concentration (IC50) in experiment [1] was < 1000 nM.

Turning to `C[C@@H](NC(=O)c1cc(C(=O)N[C@@H](Cc2ccccc2)[C@H](O)CNCc2cc(C(C)(C)C)ccc2O)cc(N(C)S(C)(=O)=O)c1)c1ccccc1` [Compound 110, N1-((2S,3R)-4-(5-tert-butyl-2-hydroxybenzylamino)-3-hydroxy-1-phenylbutan-2-yl)-5-(N-methylmethylsulfonamido)-N3-((R)-1-phenylethyl)isophthalamide], at memapsin 2, the Ki was < 300 nM. The IC50 in experiment [1] is < 1000 nM.

On to `Cc1csc(CN(C)C(=O)c2cccc(C(=O)N[C@@H](Cc3ccccc3)[C@H](O)CNCc3cc(C(C)(C)C)ccc3O)c2)n1` [Compound 111, N1-((2S,3R)-4-(5-tert-butyl-2-hydroxybenzylamino)-3-hydroxy-1-phenylbutan-2-yl)-N3-methyl-N3-((4-methylthiazol-2-yl)methyl)isophthalamide], for which, on memapsin 2, the Ki is < 300 nM. For the same compound, the half-inhibitory concentration (IC50) in experiment [1] was < 1000 nM.

`CNC(=O)c1cc(CNC[C@@H](O)[C@H](Cc2ccccc2)NC(=O)c2cccc(C(=O)N(C)Cc3nc(C)cs3)c2)cc(OC)c1` [Compound 112, N1-((2S,3R)-3-hydroxy-4-(3-methoxy-5-(methylcarbamoyl)benzylamino)-1-phenylbutan-2-yl)-N3-methyl-N3-((4-methylthiazol-2-yl)methyl)isophthalamide]: at memapsin 2, the Ki was < 300 nM. The half-maximal inhibitory concentration (IC50) in experiment [1] is < 1000 nM.

On to `C[C@@H](NC(=O)c1cc(C(=O)N[C@@H](Cc2ccccc2)[C@H](O)CNCc2cccc(C(=O)O)c2)cc(N(C)S(C)(=O)=O)c1)c1ccccc1` [Compound 113, 3-(((2R,3S)-2-hydroxy-3-(3-(N-methylmethylsulfonamido)-5-((R)-1-phenylethylcarbamoyl)benzamido)-4-phenylbutylamino)methyl)benzoic acid], for which the Ki at memapsin 2 was < 300 nM. The IC50 in experiment [1] was < 1000 nM.

Take `COC(=O)c1cc(CNC[C@@H](O)[C@H](Cc2ccccc2)NC(=O)c2cc(C(=O)N[C@H](C)c3ccccc3)cc(N(C)S(C)(=O)=O)c2)cc(OC)c1` [Compound 114, methyl 3-(((2R,3S)-2-hydroxy-3-(3-(N-methylmethylsulfonamido)-5-((R)-1-phenylethylcarbamoyl)benzamido)-4-phenylbutylamino)methyl)-5-methoxybenzoate]: the Ki at memapsin 2 was < 300 nM. Also, the IC50 in experiment [1] was < 1000 nM.

Turning to `Cc1cccc(CNC[C@@H](O)[C@H](Cc2ccccc2)NC(=O)c2cccc(C(=O)N(C)Cc3nc(C)cs3)c2)n1` [Compound 115, N1-((2S,3R)-3-hydroxy-4-((6-methylpyridin-2-yl)methylamino)-1-phenylbutan-2-yl)-N3-methyl-N3-((4-methylthiazol-2-yl)methyl)isophthalamide], the Ki on memapsin 2 is > 501 nM. Further, the IC50 in experiment [1] is < 1000 nM.

With `Cc1csc(CN(C)C(=O)c2cccc(C(=O)N[C@@H](Cc3ccccc3)[C@H](O)CNCc3cc(OCc4ccccc4)cc(C(C)C)c3)c2)n1` [Compound 116, N1-((2S,3R)-4-(3-(benzyloxy)-5-isopropylbenzylamino)-3-hydroxy-1-phenylbutan-2-yl)-N3-methyl-N3-((4-methylthiazol-2-yl)methyl)isophthalamide], at memapsin 2, the Ki was < 300 nM. Further, the concentration for half-maximal inhibition (IC50) in experiment [1] is < 1000 nM.

For `COc1cccc(CNC[C@@H](O)[C@H](Cc2ccccc2)NC(=O)c2cc(NO)cc(C(=O)N(C)Cc3nc(C)cs3)c2)c1` [Compound 117, N1-((2S,3R)-3-hydroxy-4-(3-methoxybenzylamino)-1-phenylbutan-2-yl)-5-(hydroxyamino)-N3-methyl-N3-((4-methylthiazol-2-yl)methyl)isophthalamide], on memapsin 2, the Ki was < 300 nM. In experiment [1], the IC50 is < 1000 nM.

As for `Cc1csc(CN(C)C(=O)c2cccc(C(=O)N[C@@H](Cc3ccccc3)[C@H](O)CNCc3cnn(C(C)(C)C)c3C)c2)n1` [Compound 118, N1-((2S,3R)-4-((1-tert-butyl-5-methyl-1H-pyrazol-4-yl)methylamino)-3-hydroxy-1-phenylbutan-2-yl)-N3-methyl-N3-((4-methylthiazol-2-yl)methyl)isophthalamide], the Ki on memapsin 2 was > 501 nM. Further, in experiment [1], the concentration for half-maximal inhibition (IC50) was in the range of 1000 to 5000 nM.

In the case of `Cc1csc(CN(C)C(=O)c2cccc(C(=O)N[C@@H](Cc3ccccc3)[C@H](O)CNCc3cc(NS(C)(=O)=O)cc(C(C)C)c3)c2)n1` [Compound 119, N1-((2S,3R)-3-hydroxy-4-(3-isopropyl-5-(methylsulfonamido)benzylamino)-1-phenylbutan-2-yl)-N3-methyl-N3-((4-methylthiazol-2-yl)methyl)isophthalamide], the Ki at memapsin 2 was < 300 nM. In addition, the IC50 in experiment [1] was < 1000 nM.

As for `COc1cccc(CNC[C@@H](O)[C@H](Cc2ccccc2)NC(=O)c2cc(CN=[N+]=[N-])cc(C(=O)N(C)Cc3nc(C)cs3)c2)c1` [Compound 121, 5-(azidomethyl)-N1-((2S,3R)-3-hydroxy-4-(3-methoxybenzylamino)-1-phenylbutan-2-yl)-N3-methyl-N3-((4-methylthiazol-2-yl)methyl)isophthalamide], at memapsin 2, the Ki is < 300 nM. Also, the concentration for half-maximal inhibition (IC50) in experiment [1] was < 1000 nM.

Turning to `COCc1cc(C(=O)N[C@@H](Cc2ccccc2)[C@H](O)CNCc2cccc(OC)c2)cc(C(=O)N(C)Cc2nc(C)cs2)c1` [Compound 122, N1-((2S,3R)-3-hydroxy-4-(3-methoxybenzylamino)-1-phenylbutan-2-yl)-5-(methoxymethyl)-N3-methyl-N3-((4-methylthiazol-2-yl)methyl)isophthalamide], the Ki on memapsin 2 was < 300 nM. The IC50 in experiment [1] is < 1000 nM.

Turning to `CC(=O)c1cccc(CNC[C@@H](O)[C@H](Cc2ccccc2)NC(=O)c2cccc(C(=O)N(C)Cc3nc(C)cs3)c2)c1` [Compound 124, N1-((2S,3R)-4-(3-acetylbenzylamino)-3-hydroxy-1-phenylbutan-2-yl)-N3-methyl-N3-((4-methylthiazol-2-yl)methyl)isophthalamide], the Ki at memapsin 2 was < 300 nM. For the same compound, the IC50 in experiment [1] was < 1000 nM.

Turning to `Cc1csc(CN(C)C(=O)c2cccc(C(=O)N[C@@H](Cc3ccccc3)[C@H](O)CNCc3cc(O)cc(C(C)C)c3)c2)n1` [Compound 125, N1-((2S,3R)-3-hydroxy-4-(3-hydroxy-5-isopropylbenzylamino)-1-phenylbutan-2-yl)-N3-methyl-N3-((4-methylthiazol-2-yl)methyl)isophthalamide], on memapsin 2, the Ki was < 300 nM. Moreover, the concentration for half-maximal inhibition (IC50) in experiment [1] was < 1000 nM.

On to `CC(=O)c1cccc(CNC[C@@H](O)[C@H](Cc2ccccc2)NC(=O)c2cc(C(=O)N[C@H](C)c3ccccc3)cc(N(C)S(C)(=O)=O)c2)c1` [Compound 126, N1-((2S,3R)-4-(3-acetylbenzylamino)-3-hydroxy-1-phenylbutan-2-yl)-5-(N-methylmethylsulfonamido)-N3-((R)-1-phenylethyl)isophthalamide], for which the Ki on memapsin 2 was < 300 nM. Besides, the IC50 in experiment [1] is < 1000 nM.

As for `Cc1csc(CN(C)C(=O)c2cccc(C(=O)N[C@@H](Cc3ccccc3)[C@H](O)CNCc3cccc(N(C)C)c3)c2)n1` [Compound 129, N1-((2S,3R)-4-(3-(dimethylamino)benzylamino)-3-hydroxy-1-phenylbutan-2-yl)-N3-methyl-N3-((4-methylthiazol-2-yl)methyl)isophthalamide], the Ki on memapsin 2 is < 300 nM. In experiment [1], the IC50 is < 1000 nM.

In the case of `Cc1csc(CN(C)C(=O)c2cccc(C(=O)N[C@@H](Cc3ccccc3)[C@H](O)CNCc3cc(C(C)C)cc(N(C)C(=O)OCc4ccccc4)c3)c2)n1` [Compound 130, benzyl 3-(((2R,3S)-2-hydroxy-3-(3-(methyl((4-methylthiazol-2-yl)methyl)carbamoyl)benzamido)-4-phenylbutylamino)methyl)-5-isopropylphenyl(methyl)carbamate], the Ki at memapsin 2 lay in the range of 301 to 500 nM. For the same compound, the IC50 in experiment [1] was > 5000 nM.

Values taken from patent US20100286145A1, “ISOPHTHALAMIDE DERIVATIVES INHIBITING BETA-SECRETASE ACTIVITY” (CoMentis, Inc., priority 2007, published 2010).
